Experimental data reported in PMC9317966, “Structure-function analysis of the AMPK activator SC4 and identification of a potent pan AMPK activator” (Biochemical Journal, 2022).

Tests used:
C2C12 myoblasts = assay: C2C12 oxygen consumption rate (Seahorse), mitochondrial function; format: cell-based, Murine; details: for basal respiration, ATP production, maximal respiration, spare respiratory capacity, non-mitochondrial oxygen consumption and coupling efficiency: 1 h
Description: Murine C2C12 myoblasts were plated at 1 × 10^4 cells/well into Agilent Seahorse XFe24 Cell Culture Microplates in DMEM (life Technologies, Australia) containing 10% (v/v) fetal calf serum, 1% L-glutamine (v/v), and 1% (v/v) antibiotic solution (100 unit/ml penicillin/streptomycin) at 37°C in an atmosphere of 5% CO2. The next day, cells were switched to Seahorse basal assay media (Agilent, cat#: 102353-100; 48.5 ml) containing Glutamax (500 µl of 100×; Gibco, cat#35050), D-glucose (Sigma–Aldrich cat#: G8769) and sodium pyruvate (100×; Gibco cat#: 11360-070) at pH 7.4. MK-8722 at varying doses (0, 1, 10 µM) was incubated with myotubes 1 h prior to experiment, and the assay performed by titrating oligomycin (2 µM), FCCP (2 µM), and rotenone (2 µM) plus antimycin A (2 µM) as indicated. A Seahorse XFe24 Flux Analyzer (Seahorse Biosciences) was used to measure Oxygen Consumption Rate (OCR) at three time points during basal respiration and after each injection. Cells were lysed in equal volume (20 µl) and OCR measurements were normalised to total protein determined by polyacrylamide electrophoresis (5 µl lysate/well) and stain-free imaging.
Lysates were assessed for phosphorylation of AMPKα-Thr172 by immunoblot. n = 3, data presented as mean T172 phosphorylation (arbitrary units) ± SEM. Statistical significance vs. respective vehicle treatment was performed using unpaired, two-tailed Student’s t-test. **** P < 0.0001 indicates significant increase in a-Thr172 phosphorylation relative to vehicle treated WT γ1AMPK. Representative immunoblots are shown. (B) C2C12 myoblast oxygen consumption rate following treatment of MK-8722 (0, 1, 10 µM) for 1 h and titration of specific respiration modulators. (C-I) Parameters of mitochondrial function. n = 6-7, data presented as mean oxygen consumption rate ± SEM. […] (J) Lysates were assessed for total protein content following the respiration assay.

PC3 cells = assay: Immunoblot of AMPK signalling in PC3 cells; format: cell-based; details: PC3, 2.5 µM, 1 h
Description: To evaluate the efficacy of MSG011 in cellulo, we incubated mouse primary hepatocytes with 2.5 µM MSG011 for 60 min and tracked changes in phosphorylation of AMPK α-Thr172 (marker of activation) and the AMPK substrate acetyl-CoA carboxylase (ACC) Ser79 (AMPK signalling marker).
HEK293T/17, HEK293T, COS7, HeLa and PC3 cells (ATCC) were maintained in Dulbecco's Modified Eagle's medium (DMEM; Sigma–Aldrich) supplemented with 10% fetal bovine serum (FBS; Assay Matrix) at 37°C and 5% CO2. Primary hepatocytes from wild type mice were prepared using the collagenase perfusion method and cultured as described previously. Cultures were incubated with fresh DMEM (no FBS) for 2 h prior to 1 h treatment with MSG011 (dissolved in DMSO) or phenformin (dissolved in H2O). Adherent HEK293T/17 cells at ∼50% confluency were triply transfected with AMPK α1 (pcDNA3.1 vector), β1 (COOH-terminal MYC fusion, pcDNA3.1 vector) and WT γ1 or γ1-R299G mutant (NH2-terminal HA fusion, pMT2 vector) in the presence of FuGENE HD transfection reagent (Promega) as per the manufacturers protocol. […]
All samples were separated on 12% SDS–PAGE gels and transferred to an Immobilon-FL PVDF membrane (Merck Millipore). […] Immunoblots were visualised on the Odyssey Infrared Imaging System (LI-COR Biosciences) and immunoreactive bands analysed and quantified using Image Studio Software (LI-COR Biosciences).

basal respiration, ATP production, maximal respiration, spare respiratory capacity, non-mitochondrial oxygen consumption and coupling efficiency (C2C12 myoblasts; 1 µM) | basal respiration, ATP production, maximal respiration, spare respiratory capacity, non-mitochondrial oxygen consumption and coupling efficiency (C2C12 myoblasts; 10 µM) | Structure (SMILES) | cell viability by total protein stain (C2C12 myoblasts; 0, 1, 10 µM, after respiration assay) | AMPK signalling (phosphorylation of ACC-Ser79 and raptor-Ser792) (PC3 cells) | α-Thr172 phosphorylation (PC3 cells)
not | significantly impaired | O[C@@H]1CO[C@H]2[C@@H]1OC[C@H]2Oc1nc2nc(-c3ccc(-c4ccccc4)cc3)c(Cl)cc2[nH]1 [MK-8722, reference compound] | not due to loss of cell viability | – | –
– | – | CC(=O)NC1CC=C(c2ccc(-c3nc4nc(Oc5ccc(C)c(C(=O)O)c5)[nH]c4cc3Cl)cc2)CC1 (centres unmarked) [MSG011, 5-((5-(4′-Acetamido-2′,3′,4′,5′-tetrahydro-[1,1′-biphenyl]-4-yl)-6-chloro-1H-imidazo[4,5-b]pyridin-2-yl)oxy)-2-methylbenzoic acid] | – | significantly activated AMPK | independent of changes to α-Thr172 phosphorylation
